# Data from BindingDB's records for doi:10.1111/j.1432-1033.1992.tb17043.x (Universit&Eacute, 1992).
# Non-standard residues stand in square brackets, D forms with d. Residues, ends and D or L forms follow the SMILES beside them. ξ: configuration not given here. Ile(3ξ) = CCC(C)[C@H](N)C(=O)O
# Target: T1, Pituitary adenylate cyclase-activating polypeptide (Homo sapiens, UniProt P18509)
# T1 sequence (P18509 whole entry): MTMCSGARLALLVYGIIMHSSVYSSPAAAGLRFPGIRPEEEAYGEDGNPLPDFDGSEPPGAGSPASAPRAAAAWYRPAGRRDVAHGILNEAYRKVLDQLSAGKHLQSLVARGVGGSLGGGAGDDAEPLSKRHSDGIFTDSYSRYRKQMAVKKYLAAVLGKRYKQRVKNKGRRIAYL
row,Compound,Ki [µM]
1,H-TDSYSRYRKQMAVKKYLAAVL-NH2 [PACAP(6-27)],0.2
2,"CC[C@H](C)[C@H](NC(=O)CNC(=O)[C@H](CC(=O)O)NC(=O)[C@@H](Cc1ccccc1)NC(=O)[C@H](Cc1cnc[nH]1)NC(C)=O)C(=O)N[C@@H](Cc1ccccc1)C(=O)N[C@H](C(=O)N[C@@H](CC(=O)O)C(=O)N[C@@H](CO)C(=O)N[C@@H](Cc1ccc(O)cc1)C(=O)N[C@@H](CO)C(=O)N[C@@H](CCCN=C(N)N)C(=O)N[C@@H](Cc1ccc(O)cc1)C(=O)N[C@@H](CCCN=C(N)N)C(=O)N[C@@H](CCCCN)C(=O)N[C@@H](CCC(N)=O)C(=O)N[C@@H](CCSC)C(=O)N[C@@H](C)C(=O)N[C@H](C(=O)N[C@@H](CCCCN)C(=O)N[C@@H](CCCCN)C(=O)N[C@@H](Cc1ccc(O)cc1)C(=O)N[C@@H](CC(C)C)C(=O)N[C@@H](C)C(=O)N[C@@H](C)C(=O)N[C@H](C(=O)N[C@@H](CC(C)C)C(=O)NCC(=O)N[C@@H](CCCCN)C(=O)N[C@@H](CCCN=C(N)N)C(=O)N[C@@H](Cc1ccc(O)cc1)C(=O)N[C@@H](CCCCN)C(=O)N[C@@H](CCC(N)=O)C(=O)N[C@@H](CCCN=C(N)N)C(=O)N[C@H](C(=O)N[C@@H](CCCCN)C(=O)N[C@@H](CC(N)=O)C(=O)N[C@@H](CCCCN)C(N)=O)C(C)C)C(C)C)C(C)C)[C@@H](C)O [[AcHis1,DPhe2]PACAP(1-38)]",0.01
3,H-FTDSYSRYRKQMAVKKYLAAVL-NH2 [PACAP(5-27)],0.06
4,CSCC[C@H](NC(=O)[C@H](CCC(N)=O)NC(=O)[C@H](CCCCN)NC(=O)[C@H](CCCNC(=N)N)NC(=O)[C@H](Cc1ccc(O)cc1)NC(=O)[C@H](CCCNC(=N)N)NC(=O)[C@H](CO)NC(=O)[C@H](Cc1ccc(O)cc1)NC(=O)[C@H](CO)NC(=O)[C@H](CC(=O)O)NC(=O)[C@@H](NC(=O)[C@@H](N)Cc1ccccc1)[C@@H](C)O)C(=O)N[C@@H](C)C(=O)N[C@H](C(=O)N[C@@H](CCCCN)C(=O)N[C@@H](CCCCN)C(=O)N[C@@H](Cc1ccc(O)cc1)C(=O)N[C@@H](CC(C)C)C(=O)N[C@@H](C)C(=O)N[C@@H](C)C(=O)N[C@H](C(=O)N[C@@H](CC(C)C)C(=O)NCC(=O)N[C@@H](CCCCN)C(=O)N[C@@H](CCCNC(=N)N)C(=O)N[C@@H](Cc1ccc(O)cc1)C(=O)N[C@@H](CCCCN)C(=O)N[C@@H](CCC(N)=O)C(=O)N[C@@H](CCCNC(=N)N)C(=O)N[C@H](C(=O)N[C@@H](CCCCN)C(=O)N[C@@H](CC(N)=O)C(=O)N[C@@H](CCCCN)C(N)=O)C(C)C)C(C)C)C(C)C,0.0015
5,"CCC(C)[C@H](NC(=O)CNC(=O)[C@H](CC(=O)O)NC(=O)[C@H](Cc1ccccc1)NC(=O)[C@H](Cc1cnc[nH]1)NC(C)=O)C(=O)N[C@@H](Cc1ccccc1)C(=O)N[C@H](C(=O)N[C@@H](CC(=O)O)C(=O)N[C@@H](CO)C(=O)N[C@@H](Cc1ccc(O)cc1)C(=O)N[C@@H](CO)C(=O)N[C@@H](CCCN=C(N)N)C(=O)N[C@@H](Cc1ccc(O)cc1)C(=O)N[C@@H](CCCN=C(N)N)C(=O)N[C@@H](CCCCN)C(=O)N[C@@H](CCC(N)=O)C(=O)N[C@@H](CCSC)C(=O)N[C@@H](C)C(=O)N[C@H](C(=O)N[C@@H](CCCCN)C(=O)N[C@@H](CCCCN)C(=O)N[C@@H](Cc1ccc(O)cc1)C(=O)N[C@@H](CC(C)C)C(=O)N[C@@H](C)C(=O)N[C@@H](C)C(=O)N[C@H](C(=O)N[C@@H](CC(C)C)C(N)=O)C(C)C)C(C)C)[C@@H](C)O (stereo partly drawn) [[AcHis1,Phe2]PACAP(1-27)]",0.1
6,CC[C@H](C)[C@H](NC(=O)CNC(=O)[C@H](CC(N)=O)NC(=O)[C@H](CO)NC(=O)[C@@H](N)Cc1cnc[nH]1)C(=O)N[C@@H](Cc1ccccc1)C(=O)N[C@H](C(=O)N[C@@H](CC(=O)O)C(=O)N[C@@H](CO)C(=O)N[C@@H](Cc1ccc(O)cc1)C(=O)N[C@@H](CO)C(=O)N[C@@H](CCCNC(=N)N)C(=O)N[C@@H](Cc1ccc(O)cc1)C(=O)N[C@@H](CCCNC(=N)N)C(=O)N[C@@H](CCCCN)C(=O)N[C@@H](CCC(N)=O)C(=O)N[C@@H](CCSC)C(=O)N[C@@H](C)C(=O)N[C@H](C(=O)N[C@@H](CCCCN)C(=O)N[C@@H](CCCCN)C(=O)N[C@@H](Cc1ccc(O)cc1)C(=O)N[C@@H](CC(C)C)C(=O)N[C@@H](C)C(=O)N[C@@H](C)C(=O)N[C@H](C(=O)N[C@@H](CC(C)C)C(N)=O)C(C)C)C(C)C)[C@@H](C)O [[Asn3]PACAP(1-27)],0.2
7,CCC(C)[C@H](NC(=O)CNC(=O)[C@H](CC(=O)O)NC(=O)[C@@H](Cc1ccccc1)NC(=O)[C@@H](N)Cc1cnc[nH]1)C(=O)N[C@@H](Cc1ccccc1)C(=O)N[C@H](C(=O)N[C@@H](CC(=O)O)C(=O)N[C@@H](CO)C(=O)N[C@@H](Cc1ccc(O)cc1)C(=O)N[C@@H](CO)C(=O)N[C@@H](CCCN=C(N)N)C(=O)N[C@@H](Cc1ccc(O)cc1)C(=O)N[C@@H](CCCN=C(N)N)C(=O)N[C@@H](CCCCN)C(=O)N[C@@H](CCC(N)=O)C(=O)N[C@@H](CCSC)C(=O)N[C@@H](C)C(=O)N[C@H](C(=O)N[C@@H](CCCCN)C(=O)N[C@@H](CCCCN)C(=O)N[C@@H](Cc1ccc(O)cc1)C(=O)N[C@@H](CC(C)C)C(=O)N[C@@H](C)C(=O)N[C@@H](C)C(=O)N[C@H](C(=O)N[C@@H](CC(C)C)C(N)=O)C(C)C)C(C)C)[C@@H](C)O (stereo partly drawn) [[D-Phe2]PACAP-27],0.3
8,H-TDSYSRYRKQMAVKKYLAAVLGKRYKQRVKNK-NH2 [PACAP(7-38)],0.008
9,CCC(C)[C@H](N)C(=O)N[C@@H](Cc1ccccc1)C(=O)N[C@H](C(=O)N[C@@H](CC(=O)O)C(=O)N[C@@H](CO)C(=O)N[C@@H](Cc1ccc(O)cc1)C(=O)N[C@@H](CO)C(=O)N[C@@H](CCCN=C(N)N)C(=O)N[C@@H](Cc1ccc(O)cc1)C(=O)N[C@@H](CCCN=C(N)N)C(=O)N[C@@H](CCCCN)C(=O)N[C@@H](CCC(N)=O)C(=O)N[C@@H](CCSC)C(=O)N[C@@H](C)C(=O)N[C@H](C(=O)N[C@@H](CCCCN)C(=O)N[C@@H](CCCCN)C(=O)N[C@@H](Cc1ccc(O)cc1)C(=O)N[C@@H](CC(C)C)C(=O)N[C@@H](C)C(=O)N[C@@H](C)C(=O)N[C@H](C(=O)N[C@@H](CC(C)C)C(=O)NCC(=O)N[C@@H](CCCCN)C(=O)N[C@@H](CCCN=C(N)N)C(=O)N[C@@H](Cc1ccc(O)cc1)C(=O)N[C@@H](CCCCN)C(=O)N[C@@H](CCC(N)=O)C(=O)N[C@@H](CCCN=C(N)N)C(=O)N[C@H](C(=O)N[C@@H](CCCCN)C(=O)N[C@@H](CC(N)=O)C(=O)N[C@@H](CCCCN)C(N)=O)C(C)C)C(C)C)C(C)C)[C@@H](C)O (stereo partly drawn) [PACAP(5-38)] (H-[Ile(3ξ)]FTDSYSRYRKQMAVKKYLAAVLGKRYKQRVKNK-NH2),0.005
10,"CCC(C)[C@H](NC(=O)CNC(=O)[C@H](CC(=O)O)NC(=O)[C@@H](Cc1ccccc1)NC(=O)[C@H](Cc1cnc[nH]1)NC(C)=O)C(=O)N[C@@H](Cc1ccccc1)C(=O)N[C@H](C(=O)N[C@@H](CC(=O)O)C(=O)N[C@@H](CO)C(=O)N[C@@H](Cc1ccc(O)cc1)C(=O)N[C@@H](CO)C(=O)N[C@@H](CCCN=C(N)N)C(=O)N[C@@H](Cc1ccc(O)cc1)C(=O)N[C@@H](CCCN=C(N)N)C(=O)N[C@@H](CCCCN)C(=O)N[C@@H](CCC(N)=O)C(=O)N[C@@H](CCSC)C(=O)N[C@@H](C)C(=O)N[C@H](C(=O)N[C@@H](CCCCN)C(=O)N[C@@H](CCCCN)C(=O)N[C@@H](Cc1ccc(O)cc1)C(=O)N[C@@H](CC(C)C)C(=O)N[C@@H](C)C(=O)N[C@@H](C)C(=O)N[C@H](C(=O)N[C@@H](CC(C)C)C(N)=O)C(C)C)C(C)C)[C@@H](C)O (stereo partly drawn) [[AcHis1,DPhe2]PACAP(1-27)]",1
11,CCC(C)[C@H](NC(=O)CNC(=O)[C@H](CC(=O)O)NC(=O)[C@H](Cc1ccccc1)NC(=O)[C@@H](N)Cc1cnc[nH]1)C(=O)N[C@@H](Cc1ccccc1)C(=O)N[C@H](C(=O)N[C@@H](CC(=O)O)C(=O)N[C@@H](CO)C(=O)N[C@@H](Cc1ccc(O)cc1)C(=O)N[C@@H](CO)C(=O)N[C@@H](CCCN=C(N)N)C(=O)N[C@@H](Cc1ccc(O)cc1)C(=O)N[C@@H](CCCN=C(N)N)C(=O)N[C@@H](CCCCN)C(=O)N[C@@H](CCC(N)=O)C(=O)N[C@@H](CCSC)C(=O)N[C@@H](C)C(=O)N[C@H](C(=O)N[C@@H](CCCCN)C(=O)N[C@@H](CCCCN)C(=O)N[C@@H](Cc1ccc(O)cc1)C(=O)N[C@@H](CC(C)C)C(=O)N[C@@H](C)C(=O)N[C@@H](C)C(=O)N[C@H](C(=O)N[C@@H](CC(C)C)C(N)=O)C(C)C)C(C)C)[C@@H](C)O (stereo partly drawn) [[Phe2]PACAP(1-27)],0.2
12,CCC(C)[C@H](N)C(=O)N[C@@H](Cc1ccccc1)C(=O)N[C@H](C(=O)N[C@@H](CC(=O)O)C(=O)N[C@@H](CO)C(=O)N[C@@H](Cc1ccc(O)cc1)C(=O)N[C@@H](CO)C(=O)N[C@@H](CCCN=C(N)N)C(=O)N[C@@H](Cc1ccc(O)cc1)C(=O)N[C@@H](CCCN=C(N)N)C(=O)N[C@@H](CCCCN)C(=O)N[C@@H](CCC(N)=O)C(=O)N[C@@H](CCSC)C(=O)N[C@@H](C)C(=O)N[C@H](C(=O)N[C@@H](CCCCN)C(=O)N[C@@H](CCCCN)C(=O)N[C@@H](Cc1ccc(O)cc1)C(=O)N[C@@H](CC(C)C)C(=O)N[C@@H](C)C(=O)N[C@@H](C)C(=O)N[C@H](C(=O)N[C@@H](CC(C)C)C(N)=O)C(C)C)C(C)C)[C@@H](C)O (stereo partly drawn) [PACAP(5-27)] (H-[Ile(3ξ)]FTDSYSRYRKQMAVKKYLAAVL-NH2),0.15
13,CCC(C)[C@H](NC(=O)CN)C(=O)N[C@@H](Cc1ccccc1)C(=O)N[C@H](C(=O)N[C@@H](CC(=O)O)C(=O)N[C@@H](CO)C(=O)N[C@@H](Cc1ccc(O)cc1)C(=O)N[C@@H](CO)C(=O)N[C@@H](CCCN=C(N)N)C(=O)N[C@@H](Cc1ccc(O)cc1)C(=O)N[C@@H](CCCN=C(N)N)C(=O)N[C@@H](CCCCN)C(=O)N[C@@H](CCC(N)=O)C(=O)N[C@@H](CCSC)C(=O)N[C@@H](C)C(=O)N[C@H](C(=O)N[C@@H](CCCCN)C(=O)N[C@@H](CCCCN)C(=O)N[C@@H](Cc1ccc(O)cc1)C(=O)N[C@@H](CC(C)C)C(=O)N[C@@H](C)C(=O)N[C@@H](C)C(=O)N[C@H](C(=O)N[C@@H](CC(C)C)C(=O)NCC(=O)N[C@@H](CCCCN)C(=O)N[C@@H](CCCN=C(N)N)C(=O)N[C@@H](Cc1ccc(O)cc1)C(=O)N[C@@H](CCCCN)C(=O)N[C@@H](CCC(N)=O)C(=O)N[C@@H](CCCN=C(N)N)C(=O)N[C@H](C(=O)N[C@@H](CCCCN)C(=O)N[C@@H](CC(N)=O)C(=O)N[C@@H](CCCCN)C(N)=O)C(C)C)C(C)C)C(C)C)[C@@H](C)O (stereo partly drawn) [PACAP(4-38)] (H-G[Ile(3ξ)]FTDSYSRYRKQMAVKKYLAAVLGKRYKQRVKNK-NH2),0.005
